Assay results: the NIST ThermoML archive (doi:10.1016/j.tca.2008.02.015)
± gives the expanded uncertainty stated by the source.

Test: excess molar enthalpy (molar enthalpy of mixing); xn = mol fraction of the nth substance listed
Details: 298.15 K, 101 kPa, Liquid, Calvet calorimetry

Structure (SMILES): COP(=O)(OC)OC [trimethyl orthophosphate] + CCO
- excess molar enthalpy (x1 = 0.0322): 0.0369 ± 0.000574 kcal/mol
- excess molar enthalpy (x1 = 0.0665): 0.0735 ± 0.001 kcal/mol
- excess molar enthalpy (x1 = 0.1032): 0.109 ± 0.00143 kcal/mol
- excess molar enthalpy (x1 = 0.1426): 0.132 ± 0.00172 kcal/mol
- excess molar enthalpy (x1 = 0.185): 0.151 ± 0.00196 kcal/mol
- excess molar enthalpy (x1 = 0.2305): 0.168 ± 0.00215 kcal/mol
- excess molar enthalpy (x1 = 0.2796): 0.179 ± 0.00229 kcal/mol
- excess molar enthalpy (x1 = 0.3327): 0.197 ± 0.00263 kcal/mol
- excess molar enthalpy (x1 = 0.3671): 0.208 ± 0.00263 kcal/mol
- excess molar enthalpy (x1 = 0.4156): 0.209 ± 0.00263 kcal/mol
- excess molar enthalpy (x1 = 0.454): 0.205 ± 0.00263 kcal/mol
- excess molar enthalpy (x1 = 0.5232): 0.192 ± 0.00239 kcal/mol
- excess molar enthalpy (x1 = 0.6): 0.171 ± 0.0022 kcal/mol
- excess molar enthalpy (x1 = 0.6836): 0.144 ± 0.00186 kcal/mol
- excess molar enthalpy (x1 = 0.7775): 0.111 ± 0.00146 kcal/mol
- excess molar enthalpy (x1 = 0.8821): 0.0625 ± 0.000884 kcal/mol
- excess molar enthalpy (x1 = 0.928): 0.0422 ± 0.000621 kcal/mol
- excess molar enthalpy (x1 = 0.9752): 0.021 ± 0.000382 kcal/mol

Structure (SMILES): COP(=O)(OC)OC [trimethyl orthophosphate] + CCCCO
- excess molar enthalpy (x1 = 0.0497): 0.0957 ± 0.00127 kcal/mol
- excess molar enthalpy (x1 = 0.1005): 0.176 ± 0.00225 kcal/mol
- excess molar enthalpy (x1 = 0.1531): 0.24 ± 0.00311 kcal/mol
- excess molar enthalpy (x1 = 0.2071): 0.292 ± 0.00359 kcal/mol
- excess molar enthalpy (x1 = 0.2625): 0.322 ± 0.00406 kcal/mol
- excess molar enthalpy (x1 = 0.3199): 0.344 ± 0.0043 kcal/mol
- excess molar enthalpy (x1 = 0.3794): 0.353 ± 0.00454 kcal/mol
- excess molar enthalpy (x1 = 0.439): 0.351 ± 0.0043 kcal/mol
- excess molar enthalpy (x1 = 0.5024): 0.345 ± 0.0043 kcal/mol
- excess molar enthalpy (x1 = 0.5663): 0.329 ± 0.00406 kcal/mol
- excess molar enthalpy (x1 = 0.6329): 0.311 ± 0.00382 kcal/mol
- excess molar enthalpy (x1 = 0.7016): 0.271 ± 0.00335 kcal/mol
- excess molar enthalpy (x1 = 0.7727): 0.222 ± 0.00287 kcal/mol
- excess molar enthalpy (x1 = 0.8458): 0.162 ± 0.00208 kcal/mol
- excess molar enthalpy (x1 = 0.9216): 0.088 ± 0.0012 kcal/mol

Structure (SMILES): COP(=O)(OC)OC [trimethyl orthophosphate] + CO
- excess molar enthalpy (x1 = 0.037): 0.0118 ± 0.000287 kcal/mol
- excess molar enthalpy (x1 = 0.0739): 0.0211 ± 0.000382 kcal/mol
- excess molar enthalpy (x1 = 0.1033): 0.0268 ± 0.000454 kcal/mol
- excess molar enthalpy (x1 = 0.1428): 0.0329 ± 0.000526 kcal/mol
- excess molar enthalpy (x1 = 0.1876): 0.0357 ± 0.00055 kcal/mol
- excess molar enthalpy (x1 = 0.2569): 0.054 ± 0.000765 kcal/mol
- excess molar enthalpy (x1 = 0.3086): 0.0508 ± 0.000741 kcal/mol
- excess molar enthalpy (x1 = 0.3658): 0.048 ± 0.000693 kcal/mol
- excess molar enthalpy (x1 = 0.4047): 0.0444 ± 0.000645 kcal/mol
- excess molar enthalpy (x1 = 0.4619): 0.0414 ± 0.000621 kcal/mol
- excess molar enthalpy (x1 = 0.51): 0.0352 ± 0.00055 kcal/mol
- excess molar enthalpy (x1 = 0.562): 0.0302 ± 0.000478 kcal/mol
- excess molar enthalpy (x1 = 0.6405): 0.0236 ± 0.000406 kcal/mol
- excess molar enthalpy (x1 = 0.7079): 0.0156 ± 0.000311 kcal/mol
- excess molar enthalpy (x1 = 0.783): 0.0102 ± 0.000263 kcal/mol
- excess molar enthalpy (x1 = 0.8383): 0.00676 ± 0.000239 kcal/mol
- excess molar enthalpy (x1 = 0.9): 0.00333 ± 0.000213 kcal/mol
- excess molar enthalpy (x1 = 0.9647): 0.000473 ± 0.000191 kcal/mol

Structure (SMILES): COP(=O)(OC)OC [trimethyl orthophosphate] + CCCO
- excess molar enthalpy (x1 = 0.0408): 0.0654 ± 0.000908 kcal/mol
- excess molar enthalpy (x1 = 0.0836): 0.126 ± 0.00165 kcal/mol
- excess molar enthalpy (x1 = 0.1284): 0.173 ± 0.00222 kcal/mol
- excess molar enthalpy (x1 = 0.1753): 0.212 ± 0.00263 kcal/mol
- excess molar enthalpy (x1 = 0.225): 0.235 ± 0.00287 kcal/mol
- excess molar enthalpy (x1 = 0.2769): 0.256 ± 0.00335 kcal/mol
- excess molar enthalpy (x1 = 0.3319): 0.279 ± 0.00359 kcal/mol
- excess molar enthalpy (x1 = 0.39): 0.293 ± 0.00359 kcal/mol
- excess molar enthalpy (x1 = 0.4508): 0.296 ± 0.00382 kcal/mol
- excess molar enthalpy (x1 = 0.5139): 0.282 ± 0.00359 kcal/mol
- excess molar enthalpy (x1 = 0.5701): 0.27 ± 0.00335 kcal/mol
- excess molar enthalpy (x1 = 0.6274): 0.246 ± 0.00311 kcal/mol
- excess molar enthalpy (x1 = 0.6875): 0.219 ± 0.00287 kcal/mol
- excess molar enthalpy (x1 = 0.7351): 0.197 ± 0.00263 kcal/mol
- excess molar enthalpy (x1 = 0.7834): 0.167 ± 0.00215 kcal/mol
- excess molar enthalpy (x1 = 0.8518): 0.117 ± 0.00153 kcal/mol
- excess molar enthalpy (x1 = 0.9054): 0.0789 ± 0.00108 kcal/mol
- excess molar enthalpy (x1 = 0.9614): 0.0416 ± 0.000621 kcal/mol
